Literature values in patent US10064865B2, “Composition comprising phosphodiesterase type 5 inhibitor for inhibiting apoptosis of nerve cells” (ARIBIO INC., priority 2012, dated 2018).

System: B-chronic lymphocytic leukemia cells
Settings: Marika Sarfati et al., BLOOD 2003; cited from earlier work

## CCCc1nn(C)c2c(=O)[nH]c(-c3cc(S(=O)(=O)N4CCN(C)CC4)ccc3OCC)nc12 [sildenafil]
  apoptosis of B-chronic lymphocytic leukemia cells: induce caspase-dependent apoptosis
